Measurements from US10105437B2, “Epitopes related to coeliac disease” (BTG International Limited, priority 2004, dated 2018).
Where no end group is shown, it is not given here.

tested on: PBMC from HLA-DQ2+ coeliac subjects; experiment: Interferon gamma ELISPOT, secalin 20mer first round library after rye challenge; type: cell-based, human; details: 20mers pre-treated with tTG; day 6 PBMC; 14 subjects
Method: Peptides were initially dissolved in aqueous acetonitrile (50%). Peptides in aqueous acetonitrile were transferred to sterile 96-well plates and diluted in sterile PBS with 1 mM calcium (250 mcg/ml) and then incubated with tTG (25 mcg/ml) (Sigma T5398) for 6 h 37° C. and then stored frozen (−20° C.) until use.
IFNγ ELISpot assays (Mabtech, Sweden) were performed in 96-well plates (MAIP S-45, Millipore) in which each well contained 25 mcl of peptide solution and 100 mcl of PBMC (2-8×10^5/well) in RPMI containing 10% heat inactivated human AB serum. After development and drying, IFNγ ELISpot plates were assessed using the MAIP automated ELISpot plate counter. Data was then analysed according to a novel algorithm (Expectation Maximization: EM) to define and quantify interferon-gamma responses to 9mer sequences contained within the peptide library (see FIG. 3 and below). 9mer peptides were then rationalised according to an algorithm that assumes redundancy in T-cell recognition, the “IterativeCluster” algorithm (see FIG. 4 and below), by allowing groups of amino acids with similar chemical properties at any one position in the 9mer, or for glutamate to replace glutamine at any position (assuming deamidation may have occurred).
Secalin and hordein 20mer first round peptide libraries were assessed 3 days after completing rye (bread, 100 g/d for 3 days) or barley (boiled, 100 g/d for 3 days) challenge (“day 6” PBMC interferon gamma ELISPOT responses). Although iterative analysis using 2nd and 3rd round peptide libraries to define epitopes has not yet been performed, the 20mers pre-treated with tTG found to induce “potent” responses shared substantial structural similarity to the bioactive peptides identified after wheat challenge. […] The dominant (>70% maximal response) 20mer after rye challenge was usually […] (SEQ ID NO: 1769) (8/14 subjects), or occasionally […] (SEQ ID NO: 1770) (4/14), […] (SEQ ID NO: 1771) (1/14), […] (SEQ ID NO: 1772) (1/14) and/or […] (SEQ ID NO: 1773) (1/14). Additional peptides noted for greater than 40% maximal response in at least 1 subject include: […]

Substance | subjects in whom 20mer was dominant (>70% maximal response) after rye challenge
PQQLFPLPQQPFPQPQQPFP (Description of Artificial Sequence: Synthetic gluten peptide) [rye secalin 20mer] | 8/14
QQPQQLFPQTQQSSPQQPQQ (Description of Artificial Sequence: Synthetic gluten peptide) [rye secalin 20mer] | 1/14
QPFPQPQQPTPIQPQQPFPQ (Description of Artificial Sequence: Synthetic gluten peptide) [rye secalin 20mer] | 4/14
PQTQQPQQPFPQPQQPQQLF (Description of Artificial Sequence: Synthetic gluten peptide) [rye secalin 20mer] | 1/14
QEQREGVQILLPQSHQQLVG (Description of Artificial Sequence: Synthetic gluten peptide) [rye secalin 20mer] | 1/14

same assay, conditions: after rye challenge; 14 subjects

Substance | number of subjects with > 70% maximal response | subjects with greater than 40% maximal response
PQQPQRPFAQQPEQIISQQP (Description of Artificial Sequence: Synthetic gluten peptide) [rye secalin 20mer] | 1 | 3/14
VGPSGQVSWPQQQPLPQPQQ (Description of Artificial Sequence: Synthetic gluten peptide) [rye secalin 20mer] | 2 | 2/14
SPQQPQLPFPQPQQPFVVVV (Description of Artificial Sequence: Synthetic gluten peptide) [rye secalin 20mer] | 1 | 4/14
FPQQPQQPFPQPQQQLPLQP (Description of Artificial Sequence: Synthetic gluten peptide) [rye secalin 20mer] | 2 | 3/14
NMQVGPSGQVEWPQQQPLPQ (Description of Artificial Sequence: Synthetic gluten peptide) [rye secalin 20mer] | 1 | 2/14
PQQPFPQQPEQIIPQQPQQP (Description of Artificial Sequence: Synthetic gluten peptide) [rye secalin 20mer] | 3 | 5/14
QQPSIQLSLQQQLNPCKNVL (Description of Artificial Sequence: Synthetic gluten peptide) [rye secalin 20mer] | 1 | 1/14
QQPFLLQPQQPFSQPQQPFL (Description of Artificial Sequence: Synthetic gluten peptide) [rye secalin 20mer] | 1 | 1/14
QTQQSIPQPQQPFPQPQQPF (Description of Artificial Sequence: Synthetic gluten peptide) [rye secalin 20mer] | 1 | 3/14
SIPQPQQPFPQPQQPFPQSQ (Description of Artificial Sequence: Synthetic gluten peptide) [rye secalin 20mer] | 1 | 4/14
FPLQPQQPFPQQPEQIISQQ (Description of Artificial Sequence: Synthetic gluten peptide) [rye secalin 20mer] | 1 | 5/14
QQPQQPFPLQPQQPVPQQPQ (Description of Artificial Sequence: Synthetic gluten peptide) [rye secalin 20mer] | 1 | 3/14

tested on: PBMC from HLA DQ8+DQ2- CD subjects; experiment: Interferon gamma ELISPOT, second round gliadin library in HLA DQ8 subjects; type: cell-based, human; details: not given
Description: PBMC from two subjects initially challenged were used to screen the first round “Melbourne” wheat gliadin 20mer library. The 20mer sequences identified using PBMC from these two HLA DQ8 CD subjects were dissected further by screening, in five HLA DQ8+DQ2− CD subjects including the two original subjects, a second round library based on reactive 20mers in the 1st round library. The 2nd round library consisted of screening grade overlapping 16mers, and 13mers predicted to correspond to tTG-mediated deamidation products of epitopes with the potential for deamidation of glutamine at position 1 and/or position 9 (consistent with the HLA DQ8 peptide binding motif). In addition, the 1400 glutenin (HMW and LMW) tTG-pretreated 20mers in the “Melbourne” wheat gluten library were also screened in these five subjects.

Substance | effect of deamidation of specific glutamine residues on ELISPOT responses
(QE)QPQQPFP(QE): HLA DQ8 gliadin epitope motif, Q or E at marked positions (XQPQQPFPX; not fully specified; printed as (QE)QPQQPFP(QE)) | enhanced or permissive to specific glutamine residues being deamidated
(QE)QPFPLQP(QE): HLA DQ8 gliadin epitope motif, Q or E at marked positions (XQPFPLQPX; not fully specified; printed as (QE)QPFPLQP(QE)) | enhanced or permissive to specific glutamine residues being deamidated
(QE)GSFQPSQ(QE): previously published HLA DQ8 epitope, van der Wal 1998 (XGSFQPSQX; not fully specified; printed as (QE)GSFQPSQ(QE)) [reference compound] | enhanced or permissive to specific glutamine residues being deamidated
(QE)QPIPVQP(QE): HLA DQ8 gliadin epitope motif, Q or E at marked positions (XQPIPVQPX; not fully specified; printed as (QE)QPIPVQP(QE)) | enhanced or permissive to specific glutamine residues being deamidated
(QE)QPFP(QE)QP(QE): HLA DQ8 gliadin epitope motif, Q or E at marked positions (XQPFPXQPX; not fully specified; printed as (QE)QPFP(QE)QP(QE)) | enhanced or permissive to specific glutamine residues being deamidated
(QE)QPTPIQP(QE): HLA DQ8 gliadin epitope motif, Q or E at marked positions (XQPTPIQPX; not fully specified; printed as (QE)QPTPIQP(QE)) | enhanced or permissive to specific glutamine residues being deamidated

same assay, conditions: VYIPPYCTIAPFGIFG and/or AMCNVYIPPYCAMAPF; five subjects

Substance | subjects with dominant responses to one or both of these peptides
AMCNVYIPPYCAMAPF (Description of Artificial Sequence: Synthetic gluten peptide) [gliadin 16mer, HLA DQ8] | 4/5
VYIPPYCTIAPFGIFG (Description of Artificial Sequence: Synthetic gluten peptide) [gliadin 16mer, HLA DQ8] | 4/5

same assay, conditions: five subjects; wheat gluten challenge

Substance | subjects with >70% response to maximal gliadin 16mer (dominant)
AMCNVYIPPYCAMAPF (Description of Artificial Sequence: Synthetic gluten peptide) [gliadin 16mer, HLA DQ8] | 3/5
VYIPPYCTIAPFGIFG (Description of Artificial Sequence: Synthetic gluten peptide) [gliadin 16mer, HLA DQ8] | 3/5
